According to patent US20250361253A1, “STING AGONIST COMPOUNDS” (Sutro Biopharma, Inc., priority 2022, published 2025):

Tests used:
[1] = target: T1, mSTING (Mus musculus, UniProt Q3TBT3); assay: ISG reporter induction in 293-Dual mSTING reporter cells (QUANTI-Blue); format: cell-based; conditions: 293-Dual mSTING cells, overnight incubation
T1 construct: host or cells: 293-Dual (HEK293-derived) reporter cells
T1 sequence (Q3TBT3 1-378): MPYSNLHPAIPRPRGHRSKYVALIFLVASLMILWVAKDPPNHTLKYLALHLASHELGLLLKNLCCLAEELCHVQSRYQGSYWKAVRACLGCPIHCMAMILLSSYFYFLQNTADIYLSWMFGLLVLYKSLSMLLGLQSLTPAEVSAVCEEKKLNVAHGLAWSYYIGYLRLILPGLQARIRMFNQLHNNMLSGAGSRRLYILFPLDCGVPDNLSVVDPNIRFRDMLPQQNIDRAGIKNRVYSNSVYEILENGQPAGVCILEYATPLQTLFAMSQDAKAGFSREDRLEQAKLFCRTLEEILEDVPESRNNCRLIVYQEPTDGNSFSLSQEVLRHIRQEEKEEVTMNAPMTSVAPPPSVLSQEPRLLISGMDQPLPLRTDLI
Protocol: (§1) Certain STING compounds of the disclosure were evaluated in an in vitro cell based assay.
(§2) 293-Dual hSTING-R232 and mSTING cells (Invivogen) were seeded at 25,000 cells/well (50 ul) and co-cultured with STING agonists (2× concentration, 50 ul) in clear, half-area, 96-well polystyrene plates. Cells and test samples were prepared in DMEM supplemented with 10% FBS, Glutamax, and PenStrep. After overnight incubation at 37 C in a CO2 incubator, 20 ul of supernatant was added to QUANTI-Blue detection reagent (Invivogen). After one hour incubation at 37 C, plates were read at 640/650 nm on EnVision plate reader (PerkinElmer). OD values were plotted by log(agonist) vs. response, variable slope, four parameter curve fit (Log transform) using GraphPad Prism software to determine EC50 values.

[2] = target: T2, hSTING WT (Homo sapiens, UniProt Q86WV6); assay: Surface plasmon resonance assay; format: binding; conditions: read-out: hSTING WT SPR (Kd)
T2 sequence (Q86WV6 155-341 H232R limits assumed): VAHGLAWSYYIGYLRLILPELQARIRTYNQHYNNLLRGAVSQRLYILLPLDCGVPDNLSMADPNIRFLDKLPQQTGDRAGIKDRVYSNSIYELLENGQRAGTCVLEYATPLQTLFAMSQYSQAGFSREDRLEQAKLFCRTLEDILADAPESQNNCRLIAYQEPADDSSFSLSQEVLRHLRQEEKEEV
Protocol: Surface plasmon resonance assay experimental methods were followed based on the published methods described in Pan et al., Science, 2020 369, eaba6098. (“A” means EC50≤20 nM).

[3] = target: T2, hSTING WT; assay: Thermal shift assay (DSF); format: binding; design: unit not given here; conditions: compound at 3.12 uM
Description: Thermal shift assay experimental methods were followed based on the published methods described in Ramanjulu et al. Nature, 2018, 564, 439.

[4] = target: T3, hSTING-R232 (Homo sapiens, UniProt Q86WV6, H232R); assay: ISG reporter induction in 293-Dual hSTING-R232 reporter cells (QUANTI-Blue); format: cell-based; conditions: 293-Dual hSTING-R232 cells, overnight incubation
T3 construct: host or cells: 293-Dual (HEK293-derived) reporter cells
T3 sequence (Q86WV6 whole entry H232R): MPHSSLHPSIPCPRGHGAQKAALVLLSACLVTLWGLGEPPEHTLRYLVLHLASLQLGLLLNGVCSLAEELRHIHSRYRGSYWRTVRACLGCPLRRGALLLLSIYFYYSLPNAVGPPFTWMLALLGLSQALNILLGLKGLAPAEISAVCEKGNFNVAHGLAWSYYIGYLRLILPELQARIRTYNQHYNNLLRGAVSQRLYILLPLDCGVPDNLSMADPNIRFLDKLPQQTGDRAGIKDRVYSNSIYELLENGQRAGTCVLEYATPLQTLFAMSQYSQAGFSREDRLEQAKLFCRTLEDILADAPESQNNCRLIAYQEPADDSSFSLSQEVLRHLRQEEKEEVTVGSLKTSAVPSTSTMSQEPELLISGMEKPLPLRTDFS
Protocol: as §1, §2

COc1cc2sc(C(=O)CCC(=O)O)cc2c(F)c1OCCCOc1c(OC)cc2sc(C(=O)CCP(=O)(O)O)cc2c1F [Compound 7, 4-(4-Fluoro-5-(3-((4-fluoro-6-methoxy-2-(3-phosphonopropanoyl)benzo[b]thiophen-5-yl)oxy)propoxy)-6-methoxybenzo[b]thiophen-2-yl)-4-oxobutanoic acid]
EC50 [1]: ≤ 50 nM
Kd [2]: ≤ 20 nM
hSTING WT DSF (delta TmD @ 3.12 uM) [3]: 20
EC50 [4]: ≤ 50 nM
